Where a name gives a salt, the structure may show the parent alone.
Experiments:
Assay type in all cases: physicochemical
[1] = Storage stability of solid forms at room temperature
Experimental: In detail, rimonabant base may be isolated in a new solid state crystalline hydrate form, designated as the Form III. Form III is characterized by the XRPD spectrum having characteristic peaks at angles of around 9.29°, 10.49°, 13.52°, 15.25°, 17.78° using a 2-theta scale. […] The hydrated Form III is stable during storage at room temperature.
In general, a mixture of the hydrated Form III and the methanol solvate Form IV may be obtained after a crystallization of rimonabant base from a methanol solvent containing water. Mixtures of the hydrated Form III and the methanol solvate Form IV may also be obtained by crystallizing rimonabant base and rimonabant hydrochloride from methanol/water mixtures. A longer crystallization time, a slower cooling, and a lower solute concentration each generally promote the crystallization of Form III over Form IV. […] The methanolate Form IV is thus a thermodynamically unstable form. A mixture of Forms III and Form IV is also useful for making particulated amorphous rimonabant base.
Rimonabant base may also be isolated in a propanol solvate form, designated as the Form VI. Form VI is characterized by the following XRPD having characteristic peaks at angles of around 6.73°, 8.36°, 9.92°, 11.98°, 13.45°, 14.34°, 18.14°, 21.43°, 21.88°, 24.13°, 31.03° and 32.28° using a 2-theta scale. […] Instead, the known Form I of the crystalline anhydrous rimonabant is provided after a crystallization from 2-propanol. Form VI may be obtained by crystallizing rimonabant base from a 1-propanol solvent. For example, the crystallization may be induced by a slow evaporation of the 1-propanol solvent.

[2] = Thermal desolvation of hydrates/solvates by heating/drying; settings: among Form III, IV, V and VI; temperature higher than 80° C. preferable
Excerpt: The conversion of any of the above hydrates and/or solvates, as well as mixtures thereof, to the particulated amorphous rimonabant base may be performed by a heating (drying) thereof at an enhanced temperature (e.g., higher than room temperature), preferably at diminished pressure (e.g., lower than atmospheric pressure). The transformation into the particulated amorphous rimonabant base may be accomplished by the fact that the crystalline lattice of any of the solvates and/or hydrates is thermally unstable and may collapse at an enhanced temperature without any further recrystallization into the most thermodynamically stable form of rimonabant, the Form I. Accordingly the Form I cannot apparently be converted into the amorphous form by such a simple transformation.
The fastest loss of the bound solvent in combination with amorphization occurs for the ethanol solvate, where the heating/drying of the product takes place at 60° C. or more, generally 60-80° C. Accordingly, the ethanol solvate can be used to obtain powderized amorphous rimonabant base. For other hydrates/solvates, e.g., for the methanolate Form IV, propanolate Form VI, hydrate Form III or hydrate Form V, a temperature higher than 80° C. is preferable to facilitate the conversion into the particulate amorphous rimonabant base. […]

Solubility in water = settings: compared with the known Form I
Excerpt: In general, only the hydrated Form III rimonabant is obtainable by a process employing water as the solvent. The other known solvent-free forms I and II are made by a process employing solely an organic solvent. The Form III is thus an advantageous form from technological and ecological reasons.

[3] = Stability of the salt towards solvents (crystallization or stirring of a suspension)
Excerpt: A known rimonabant solvate form, a rimonabant ethanol solvate, is disclosed in U.S. Pat. No. 5,624,941 (Example 212). According to U.S. Pat. No. 5,624,941, this ethanol solvate may be made by crystallizing rimonabant from ethanol. It has now been discovered that the same rimonabant ethanol solvate may be obtained by a novel solvent mediated transformation, such as by suspending and stirring the anhydrous rimonabant base in a liquid comprising ethanol. For example, the liquid may be an ethanol/water mixture, e.g. having a 3:1 (V/V) ratio. Also the crystallization of rimonabant hydrochloride from an ethanol/water mixture may provide for the known ethanolate of rimonabant base, which is another process not disclosed in the prior art and indicates the instability of rimonabant hydrochloride towards solvents comprising ethanol. As described more fully below, this ethanol solvate can be used to form amorphous rimonabant.
In this regard, the rimonabant salt can precipitate as the base, either by addition of a neutralizing base or spontaneously, and/or can precipitate as the salt and convert to the base by a solvent mediated transformation. Accordingly, stirring a suspension of rimonabant hydrochloride in a solvent comprising water (e.g. water/methanol=30:1 V/V) at ambient temperature provides for solvent-mediated polymorphic transformation yielding the Form III of rimonabant base. […]

With `Cc1c(C(=O)NN2CCCCC2)nn(-c2ccc(Cl)cc2Cl)c1-c1ccc(Cl)cc1` [Form VI, Rimonabant] the stability during storage [1] was “sufficiently stable” and the “relative stability to heating/drying (desolvation)” value [2] was “most stable”.

For `Cc1c(C(=O)NN2CCCCC2)nn(-c2ccc(Cl)cc2Cl)c1-c1ccc(Cl)cc1` [Form IV, Rimonabant], the conversion during storage ([1]; in the presence of air humidity) was “may be converted into Form III”.

In the case of `Cc1c(C(=O)NN2CCCCC2)nn(-c2ccc(Cl)cc2Cl)c1-c1ccc(Cl)cc1` [Form III, Rimonabant], the solubility in water (Solubility in water) is reported as “same solubility in water as the known Form I” and the stability during storage [1] is reported as “stable”.

In the case of `Cc1c(C(=O)NN2CCCCC2)nn(-c2ccc(Cl)cc2Cl)c1-c1ccc(Cl)cc1` [rimonabant hydrochloride], the “stability towards solvents comprising ethanol” value ([3]; crystallization from an ethanol/water mixture gives the ethanolate of the base) is reported as “instability” and the “stability towards solvents comprising water” value ([3]; e.g. water/methanol 30:1 V/V, ambient temperature, yields Form III of the base) is reported as “not stable”.

Source: patent US20080182877A1, “Rimonabant forms and methods of making the same” (priority 2007, published 2008)
